Results as given in paper PMC10065799, “High-throughput profiling of sequence recognition by tyrosine kinases and SH2 domains using bacterial peptide display” (eLife, 2023).
Square brackets hold non-standard residues; d marks the D form. pY = N[C@@H](Cc1ccc(OP(=O)(O)O)cc1)C(=O)O

T1: c-Abl kinase domain (Mus musculus, UniProt P00520)
T1 sequence (P00520 242-493 limits assumed): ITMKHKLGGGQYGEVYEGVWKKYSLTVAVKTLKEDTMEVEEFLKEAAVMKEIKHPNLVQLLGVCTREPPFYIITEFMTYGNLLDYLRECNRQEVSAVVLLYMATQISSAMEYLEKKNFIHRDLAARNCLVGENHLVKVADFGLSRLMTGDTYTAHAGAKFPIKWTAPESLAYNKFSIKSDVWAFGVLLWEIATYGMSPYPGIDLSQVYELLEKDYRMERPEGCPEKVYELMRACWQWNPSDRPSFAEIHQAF


Assays:
EPHB1 kinase domain = experiment: pTyr-Var library bacterial peptide display kinase screen (enrichment scores); format: biochemical, human; conditions: for Screen: sheet EPHB1, effect of the variant peptide relative to its reference peptide in the pTyr-Var library screen (enrichment scores); for Screen (variant relative to reference peptide, measured in the pTyr-Var library screen): sheet "EPHB1", variant seq vs reference seq, bacterial peptide display enrichment
Fer kinase domain = experiment: as above; format: biochemical, mouse; conditions: sheet "Fer"
EPHB2 kinase domain = experiment: as above; format: biochemical, human; conditions: sheet EPHB2;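 further: log2 fold change in enrichment of variant over reference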
c-Abl kinase domain = biological target: T1, c-Abl kinase domain; experiment: as above; format: biochemical;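 further: log2 fold change in enrichment of variant over reference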
c-Src kinase domain = c-Src kinase domain (Homo sapiens, UniProt P12931); experiment: as above; format: biochemical; conditions: sheet "Src";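 further: log2 fold change in enrichment of variant over reference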
[1] = biological target: human c-Src SH2 domain (residues 143-250) (human, UniProt P12931-1 143-250, biotin on the Avi tag (co-expression with the biotin ligase BirA)); experiment: fluorescence polarisation; competition: unlabeled phosphopeptide serially diluted against 30 nM fluorescent peptide and 240 nM (1.5 x KD) c-Src SH2; same buffer; 25 °C; cubic binding equation; conditions: both partners purified
[2] = value of the variant peptide against its reference peptide in the pTyr-Var library screen with Fer
[3] = effect of variant peptide relative to its reference peptide in the pTyr-Var library screen (enrichment scores)
[4] = fig5-data2, sheet "Abl", Screen for the variant/reference peptide pair, pTyr-Var library
[5] = variant peptide versus its reference peptide in the pTyr-Var library screen
[6] = effect of the variant peptide relative to its reference peptide in the pTyr-Var library screen
[7] = variant peptide relative to its reference peptide, pTyr-Var library screen enrichment
[8] = effect of the variant relative to its reference peptide in the pTyr-Var library screen

Row | Molecule | Screen (EPHB1 kinase domain) | Screen (Fer kinase domain; [2]) | Screen (EPHB2 kinase domain; [3]) | Screen (c-Src kinase domain; [5]) | other results
1 | QDEHGYISLCF [HSPB1_Y133_R136L] | 1.02 | – | – | – | –
2 | PFTRNYFVWAV [CYBA_Y87_R90W_YF] | 3.209 | 2.258 | 2.204 | – | Screen (c-Abl kinase domain; [4]): 0.4523
3 | QNTVDYFDLFG [PTPN11_Y62_G60V_YF] | -3.39 | – | -4.099 | -1.317 | –
4 | SEHLIYLEFKS [RASGRP1_Y215_T214I] | 0.7598 | – | – | 0.01051 | Screen (c-Abl kinase domain; [4]): 0.2716
5 | LKDEDYLKDTV [HAUS3_Y582_I586T] | 0.8437 | – | 0.5716 | – | –
6 | NKFTTYLPWLP [C9orf24_Y126_R129W_YF] | 3.061 | 4.402 | 3.885 | – | Screen (c-Src kinase domain; [6]): 3.427
7 | NNHGNYIVHLG [ETFDH_Y172_R175H] | 2.943 | – | 1.999 | – | –
8 | LFMGDYVGRGF [PPP2CA_Y86_D88G_YF] | 1.681 | – | – | 1.98 | –
9 | ISSLLYELLEE [TRPC6_Y896_R895L] | – | – | – | 3.086 | Screen (Fer kinase domain; [7]): 3.789; Screen (EPHB2 kinase domain; [8]): 3.042; Screen (variant relative to reference peptide, measured in the pTyr-Var library screen) (EPHB1 kinase domain): 3.527
10 | RQSTLYSFFPT [MSH6_Y8_K13T] | -0.1515 | 1.758 | 0.1224 | – | Screen (c-Src kinase domain; [6]): -0.09567
11 | NHQFDYTFHWT [CSNK1A1_Y294_D297H_YF] | 1.13 | 3.7 | – | – | –
12 | EELLRYAIVTP [POC5_Y37_H36R] | -2.287 | -3.509 | – | – | –
13 | HKNNNYEPSLF [BRCA2_Y57_N60S] | -1.049 | – | – | – | –
14 | GRKTLYSFFSP [UNG_Y8_Q4R] | – | – | – | -1.198 | Screen (Fer kinase domain; [7]): -1.21; Screen (EPHB2 kinase domain; [8]): -1.763; Screen (variant relative to reference peptide, measured in the pTyr-Var library screen) (EPHB1 kinase domain): -1.828
15 | LNGDRYFKGIV [DCX_Y64_R59L] | 2.112 | 2.021 | 1.457 | – | Screen (c-Abl kinase domain; [4]): 0.06367
16 | QTPVLYTMLDH [MPZ_Y220_A221T] | -1.287 | 0.203 | -2.33 | – | Screen (c-Src kinase domain; [6]): -0.5854
17 | PLSGEYFTLQI [TP53_Y327_D324S] | – | – | – | -0.1322 | Screen (c-Abl kinase domain; sheet "Abl", effect of variant peptide relative to its reference peptide in pTyr-Var library screen (enrichment)): -0.7361; Screen (variant relative to reference peptide, measured in the pTyr-Var library screen) (EPHB1 kinase domain): 0.4408
18 | LTTEAYEWEPC [ELMOD3_Y61_R66C] | 1.595 | 1.258 | 1.193 | – | Screen (c-Src kinase domain; [6]): 2.164
19 | VDTGVYAVPPP [BCAR1_Y410_S407T] | 0.1474 | 0.101 | 0.0652 | – | Screen (c-Src kinase domain; [6]): -0.01564
20 | KQQEIYQEVTQ [CD209_Y239_L242V] | 0.2667 | 1.048 | 0.564 | – | Screen (c-Src kinase domain; [6]): -0.1121

Row | Molecule | Screen (EPHB1 kinase domain) | Screen (Fer kinase domain; [2]) | Screen (EPHB2 kinase domain; [3]) | Screen (c-Src kinase domain; [5]) | other results
21 | HNMPIYEGFAL [ACTA1_Y168_V165M_YF] | 0.09959 | 0.2696 | 0.1725 | – | Screen (c-Src kinase domain; [6]): 0.3248; Screen (c-Abl kinase domain; [4]): -1.455
22 | PLEGEYFTLQI [TP53_Y327_D324E] | – | – | – | 0.9967 | Screen (Fer kinase domain; [7]): 1.311; Screen (EPHB2 kinase domain; [8]): 1.812; Screen (variant relative to reference peptide, measured in the pTyr-Var library screen) (EPHB1 kinase domain): 1.418
23 | ADAGMYGVLPW [PLP1_Y207_R205G] | 0.87 | 1.986 | 1.359 | -0.01805 | –
24 | HNVPIYEGFGL [ACTA1_Y168_A172G_YF] | 0.1073 | -0.2533 | 0.031 | – | Screen (c-Src kinase domain; [6]): -0.3085; Screen (c-Abl kinase domain; [4]): -0.8833
25 | INPIIYAFVVE [CCR5_Y297_G301V] | -1.262 | -1.367 | -1.294 | – | Screen (c-Src kinase domain; [6]): -0.9018
26 | ENGPFYASFPP [GDAP2_Y488_T489A_YF] | 1.693 | 0.7376 | 2.037 | – | Screen (c-Src kinase domain; [6]): 0.1608
27 | DGPVNYEEFVQ [CALM2_Y139_Q136P] | -0.2324 | – | – | – | –
28 | FRSSLYSLMET [MYO5C_Y633_L634S] | 2.366 | 3.791 | 1.684 | 2.978 | –
29 | HLVLNYGVCFC [JAK2_Y613_V617F] | 0.008865 | – | 0.8396 | – | Screen (c-Abl kinase domain; [4]): 1.962
30 | VVQGIYGFHHH [UFSP2_Y285_Y290H_YF] | – | – | – | 0.2882 | Screen (Fer kinase domain; [7]): -0.4799; Screen (EPHB2 kinase domain; [8]): -2.017; Screen (variant relative to reference peptide, measured in the pTyr-Var library screen) (EPHB1 kinase domain): -1.444
31 | KSFDMYSGDVM [FAM3D_Y122_A118S] | 0.345 | – | – | – | –
32 | LDLPGYCLLRE [CCDC116_Y291_P293L] | 0.4195 | – | – | – | Screen (c-Abl kinase domain; [4]): -2.162
33 | LHQSTYQCFDV [SLC7A14_Y693_R695C_YF] | – | – | – | 0.927 | Screen (Fer kinase domain; [7]): 1.307; Screen (variant relative to reference peptide, measured in the pTyr-Var library screen) (EPHB1 kinase domain): 1.159
34 | HEEDNYIEMIP [NWD2_Y566_L569M] | -0.841 | – | -0.6493 | – | –
35 | QPSALYEDRFL [ASS1_Y83_S79P_YF] | -0.4777 | 0.05915 | 0.0303 | – | Screen (c-Src kinase domain; [6]): -0.4742
36 | NREGVYTDFAP [TGFBI_Y537_V539D] | – | – | – | -0.2611 | Screen (Fer kinase domain; [7]): -1.802; Screen (EPHB2 kinase domain; [8]): -1.696; Screen (variant relative to reference peptide, measured in the pTyr-Var library screen) (EPHB1 kinase domain): -2.047
37 | NVVQEYERVII [NPHS2_Y131_K126N] | -0.6061 | 0.1682 | -0.3645 | – | –
38 | Ac-QVEGIG[pY]DFIPTG-NH2 (SMILES CC[C@H](C)[C@H](NC(=O)CNC(=O)[C@H](CCC(=O)O)NC(=O)[C@@H](NC(=O)[C@H](CCC(N)=O)NC(C)=O)C(C)C)C(=O)NCC(=O)N[C@@H](Cc1ccc(OP(=O)(O)O)cc1)C(=O)N[C@@H](CC(=O)O)C(=O)N[C@@H](Cc1ccccc1)C(=O)N[C@H](C(=O)N1CCC[C@H]1C(=O)N[C@H](C(=O)NCC(N)=O)[C@@H](C)O)[C@@H](C)CC, source: synthetic peptide (synthesized in-house, RP-HPLC purified)) [CBS_Y308 phosphopeptide Ac-QVEGIG(pY)DFIPTG-NH2] | – | – | – | – | binding result [1]: binds
39 | Ac-QVEGIS[pY]DFIPTG-NH2 (SMILES CC[C@H](C)[C@H](NC(=O)CNC(=O)[C@H](CCC(=O)O)NC(=O)[C@@H](NC(=O)[C@H](CCC(N)=O)NC(C)=O)C(C)C)C(=O)N[C@@H](CO)C(=O)N[C@@H](Cc1ccc(OP(=O)(O)O)cc1)C(=O)N[C@@H](CC(=O)O)C(=O)N[C@@H](Cc1ccccc1)C(=O)N[C@H](C(=O)N1CCC[C@H]1C(=O)N[C@H](C(=O)NCC(N)=O)[C@@H](C)O)[C@@H](C)CC, source: synthetic peptide (synthesized in-house, RP-HPLC purified)) [CBS_Y308_G307S phosphopeptide Ac-QVEGIS(pY)DFIPTG-NH2] | – | – | – | – | binding result [1]: binds
